# Reference: patent publication US7786090B2, “Methods and compositions for treating and preventing neurologic disorders” (President and Fellows of Harvard College, priority 2006, dated 2010)
# Square brackets hold non-standard residues; d marks the D form. Ends that are not written are not given here. Peptide text beside a SMILES is read from it. * marks the point of attachment. pS = N[C@@H](COP(=O)(O)O)C(=O)O; Cbz = O=C(OCc1ccccc1)*
# Experiments:
# Pin1 = Pin1 (Homo sapiens, UniProt Q13526); conditions: Daum et al. 2006; cited from earlier work
# Sequence of Pin1 (Q13526 whole entry, species assumed): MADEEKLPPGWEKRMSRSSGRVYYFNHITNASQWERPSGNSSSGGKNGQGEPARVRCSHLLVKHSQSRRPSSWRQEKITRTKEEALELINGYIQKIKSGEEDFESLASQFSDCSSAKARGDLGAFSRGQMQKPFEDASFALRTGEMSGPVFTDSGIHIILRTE
# [1] = tested on: interaction of Pin1 and JIP3; assay: Co-immunoprecipitation of endogenous Pin1 and JIP3 in granule neurons; type: cell-based, rat; conditions: exposure of granule neurons to JNK activating stimuli
# Experimental: Lysates from granule neurons that were kept in conditioned full medium (CM) or starved for 2 h (Starv) were immunoprecipitated using a JIP3 antibody, followed by immunoblotting for Pin1. Left panels show the expression of JIP3 and Pin1.
# To determine whether the binding of Pin1 to JIP3 is regulated by an apoptotic stimulus, we measured the interaction of endogenous Pin1 and JIP3 in granule neurons that were left in full medium (conditioned medium, CM) or that were starved for two hours.
# JNK signaling = JNK signaling in cerebellar granule neurons (phosphorylation of c-Jun and BIMEL); type: cell-based, rat; conditions: granule neurons treated for 5 h with 5 μM MG132
# Experimental: FIG. 1C is a series of immunoblot photographs. Lysates of cerebellar granule neurons untreated or treated for 5 h with 5 μM MG132 were subjected to a pulldown with GST-Pin1 WW, followed by immunoblotting for BIM. Lower panels show the expression of BIMEL and phosphorylated c-Jun.
# The phosphorylation of BIMEL at Ser65 triggers apoptosis specifically in neurons but not in non-neural cells. A critical regulatory post-phosphorylation event is the prolyl isomerization of proteins at sites of proline-dependent phosphorylation. A major function of Pin1 is to drive cells through mitosis in proliferating cells. Pin1 is also highly expressed in the nervous system. To assess whether Pin1 binds to Ser65-phosphorylated BIMEL in vitro, we used a GST pulldown assay. We expressed BIMEL in 293T cells alone or together with a constitutively active form of the kinase MEKK1 (MEKK1Δ), an upstream activator of JNK. Expression of MEKK1Δ results in the robust phosphorylation of BIMEL at Ser65, which is reflected by a mobility shift of BIMEL (FIG. 1A). Recombinant GST-Pin1, but not GST, specifically co-precipitated phosphorylated but not unphosphorylated BIMEL from cell lysates (FIG. 1A). […] In other experiments, we tested if a recombinant GST fusion protein containing the WW domain of Pin1 associates with BIMEL. The WW domain of Pin1 interacts specifically with phosphoSer/Thr-Pro motifs. […]
# [2] = molecular target: T1, interaction of Pin1 with BIMEL (Homo sapiens, UniProt Q13526); assay: GST-Pin1 pulldown with increasing Pintide, Pin1-BIMEL interaction; type: binding; conditions: lysates of 293T cells transfected with FLAG-BIMEL and FLAG-MEKK1Δ, Pintide 0, 2.5, 5, 10, 25, 50 mM
# T1 construct: made in house; FLAG-BIMEL: lysate of 293T cells co-transfected with FLAG-MEKK1Δ
# T1 sequence (Q13526 whole entry): as the sequence (Q13526 whole entry, species assumed) above
# Experimental: (§1) FIG. 2G is a series of immunoblot photographs. Lysates of 293T cells transfected with FLAG-JIP3 or FLAG-BIMEL together with FLAG-MEKK1Δ were subjected to a GST-Pin1 pulldown assay in the presence of increasing amount of Pintide peptide ([…]), followed by immunoblotting for FLAG and GST. Representative immunoblots of three independent experiments are shown.
# (§2) GST-pulldown assays were performed as described by Ryo et al., Mol. Cell 12: 1413-1426, 2003. Immunoprecipitations and subcellular fractionations were performed as described by Konishi et al., Science 303: 1026-1030, 2004. The postnuclear supernatant was further centrifuged at 10,000 g for 30 min to pellet the mitochondrially-enriched heavy membrane (HM) fraction. Antibodies to BIM (Stressgen); phospho65 BIM antibody (Biosource); HA, HSP60, JIP3, GST (Santa Cruz Biotechnology); FLAG (Sigma); P-c-Jun, MKK7, Pin1 (Cell Signaling); SP1, JNK (Upstate); GFP (Molecular Probes) are available commercially.
# (§3) Thus, similar to BIMEL, JIP3 interacts with Pin1 in a phosphorylation-dependent manner.
# [3] = molecular target: T2, interaction of Pin1 with JIP3 (Homo sapiens, UniProt Q13526); assay: GST-Pin1 pulldown with increasing Pintide, Pin1-JIP3 interaction; type: binding; parameters: dose or concentration left out as unconfirmed; conditions: lysates of 293T cells transfected with FLAG-JIP3, Pintide 0, 2.5, 5, 10, 25
# T2 construct: made in house; FLAG-JIP3: lysate of transfected 293T cells
# T2 sequence (Q13526 whole entry): as the sequence (Q13526 whole entry, species assumed) above
# Experimental: as §1, §2, §3
Compound,inhibition of Pin1 (Pin1),interaction of Pin1 and JIP3 [1],further results
COc1ccc(F)cc1C(=O)C1(C)CCc2ccccc21 (racemic) [rac-9],inhibit Pin1,,
COc1ccc(F)cc1C(=O)[C@]1(C)CCc2ccccc21 [(R)-9],inhibit Pin1,,
CC(C)C[C@@H](C=O)NC(=O)[C@H](CC(C)C)NC(=O)[C@H](CC(C)C)NC(=O)OCc1ccccc1 [MG132] (Cbz-Leu-Leu-Leu-aldehyde),,led to a decrease,JNK signaling (JNK signaling): activated JNK signaling
OO [hydrogen peroxide],,led to a decrease,
WFYpSPRLKK (WFY[pS]PRLKK) [Pintide],,,disruption of the interaction of Pin1 with BIMEL [2]: disrupted the interaction of Pin1 with JIP3 and BIMEL in a dose-dependent manner; disruption of the interaction of Pin1 with JIP3 [3]: disrupted the interaction of Pin1 with JIP3 and BIMEL in a dose-dependent manner
